According to patent US20080038402A1, “RUMINANT ANIMAL FEED FORMULATIONS AND METHODS OF FORMULATING SAME” (priority 2006, published 2008):
Marks after values point to notes of the source that are not given here.

Experiments:
rumen fluid [1] = test: Redox, pH and dry matter disappearance of rumen fluid incubated 6 hours at 39° C.; type: cell-based, cows; settings: by treatment
Experimental: (§1) Rumen fluid was sampled via the fistula using the Geishawer probe according to standard methodology, with sampling done 2 hours pre-feeding, and again at 2, 4, and 6 hours post-feeding at day 19, 20 or 21 of a 21 day feeding period. Fluid was strained through 4 ply cheesecloth into duplicate containers treated with phosphoric acid (preservative). At the end of each feeding period, rumen fluid from the 2 hours pre-feeding sample was placed into a pre-warmed half litre vacuum flask and forwarded for in vitro studies, described below. The vacuum flask was filled and covered immediately after sampling.
(§2) Temperature, pH, redox on strained and unstrained rumen fluid were measured to assess viability and consistency. The rumen fluid was incubated for 6 hours at 39° C. with (1) control 0.13 g soybean meal (SBM) and 0.13 g TMR food sample; and (2) test 0.13 g Top Soy and 0.13 g TMR. Samples were analyzed for ammonia concentration and substrate disappearance.

rumen fluid [2] = test: Rumen gas production in vitro (rumen fluid added to buffer and food source, 0 to 6 hours); type: cell-based; settings: by treatment of donor cows
Experimental: as §1
Rumen fluid samples were also added to buffer and food source, and gas production was recorded from time 0 to 6 hours.

rumen fluid [3] = test: Rumen fluid pH and volatile fatty acids in rumen-fistulated cows (4x4 latin square); type: in vivo
Experimental: (§3) The use of the RAFA, were compared with an animal control. A four by four latin square design was used, employing four rumen-fistulated cows. Cows were fed a standard TMR (total mixed ration) for at least 7 days prior to the start of the experiment, and were assigned to one of the following four 21 day ration sequences: ABCD, BCDA, CDAB, and DABC, where A, B, C, and D are as follows: (A) control (standard TMR); (B) Monensin (control diet plus 200 mg/kg monensin); (C) Surfactant (control diet plus 316 mg/kg Surfactant); (D) Essential Oil (control diet plus 5 mg/kg Essential Oil).
as §1
Rumen fluid pH and volatile fatty acids (VEA) were measured.

rumen-fistulated cows = test: Daily milk production and feed consumption; type: in vivo; settings: by treatment
Experimental: as §3

rumen fluid [4] = test: Concentration and breakdown of VFA in vitro in incubated rumen fluid; type: cell-based, cows; settings: by treatment
Experimental: as §2
Concentration and breakdown of volatile fatty acids (VFA) in vitro were tabulated in Table 7, below, as results of statistical analysis across all timepoints.

rumen fluid [5] = test: Example 3a in vitro rumen fluid incubation (gas, DMD, VFA): monensin, soy oil, Ca salts of soy oil; type: cell-based
Text: One objective of this experiment was to compare these lipid sources (soy oil and calcium salts of soy oil) with each other and in the presence and absence of monensin sodium.
Production of iso-valeric acid and n-valeric acid was also used to estimate the level of protein (specifically branched chain amino acid) degradation in the rumen (Benchaar et al 1998), and results of VFA production can thus be used as an adjustment factor to express the benefit of such additives on protein degradability.
(§4) The measurement of rumen gas production over time is a well described technique (Minson 1998) and is subject to small variation between laboratories. In this laboratory, the substrate employed in all experiments was based on a dried TMR sample. Data from gas measurement observations using two replicates (true volume corrected by subtraction of corresponding negative control values at similar time point) was analyzed by ANOVA with time, treatment, and replicate as main effects in the model. The interaction of time by treatment by replicate was used as the error term. Dry matter digestibility was analyzed by ANOVA with treatment as the main effect in the model and treatment by replicate interaction as the error term. VFA parameters were analyzed by ANOVA with treatment as the main effect in the model and treatment by replicate interaction as the error term.
Statistical summaries are given in Tables 10-12 below for Mean Gas Production (0 to 6 hours incubation), DMD (Dry Matter Digestibility) %, VFA Tot. (Volatile Fatty Acids total moles), Acetic, Propionic, Butyric, Isobutyric, Isovaleric, and n-Valeric acids (molar percentages).
This trial further validates the adjustments applied to KB when monensin and soy oil are included in the diet either separately or in combination. Adjustment factors are calculated as the ratio of rumen active feed additive valerate production (i-valeric acid plus n-valeric acid) in the combination treatment to that of the control (TMR with CaSalts of SoyOil). Using this approach, KB can be adjusted by the following factors: • Monensin=6.36/7.20=0.88 • SoyOil=6.95/7.20=0.97 • Monensin+SoyOil=5.40/7.20=0.75

rumen fluid [6] = test: Rumen ammonia level after incubation, by treatment and soy process; type: cell-based, cows; settings: by treatment
Experimental: as §2
This trial further validates the adjustments applied to KB in the method when monensin sodium, Surfactant or Essential Oil are included in the diet. Adjustment factors for each RAFA were calculated as the ratio of additive ammonia production to that of the control and applied to the KB during formulation.

rumen fluid [7] = test: Example 3c in vitro rumen fluid incubation (gas, DMD, VFA): monensin, organic acid, yeast culture, fermentation solubles; type: cell-based
Experimental: as §4, with “Data from gas measurement observations using two replicates (true volume corrected by subtraction of corresponding negative control values at similar time point) was analyzed by ANOVA with time, treatment, and replicate as main effects in the model.” left out
The protocol used in Example 3a was also used in 3c to investigate the additive effects of other RAFA
Statistical summaries were tabulated in Tables 18-20 below for Mean Gas Production (0 to 6 hours incubation), DMD (Dry Matter Digestibility) %, VFA Tot. (Volatile Fatty Acids total moles), Acetic, Propionic, I-Butyric, n-Butyric, Isovaleric, and n-Valeric acids (molar percentages).

Substance: monensin sodium
- pH at T0 (rumen fluid [1]): 6.31
- DMD % (rumen fluid [1]; 6 hours at 39° C.): 40.43%
- Redox (seconds) at T0 (rumen fluid [1]; cell viability): 30 s
- GAS (rumen fluid [2]): 10.39^c ml
- Rumen pH (rumen fluid [3]; by treatment across all time points, 21 day ration, monensin 200 mg/kg, Surfactant 316 mg/kg, Essential Oil 5 mg/kg diet): 6.07
- Acetic (acetic acid) (rumen fluid [3]; rumen fluid by treatment): 57.90^b molar percentage
- Prop (propionic acid) (rumen fluid [3]; rumen fluid by treatment): 24.91^c molar percentage
- VFA total (rumen fluid [3]; rumen fluid by treatment): 102.64^b mmol/L
- i-But (i-butyric acid) (rumen fluid [3]; rumen fluid by treatment): 0.95^b molar percentage
- i-Val (i-valeric acid) (rumen fluid [3]; rumen fluid by treatment): 1.08^c molar percentage
- n-But (n-butyric acid) (rumen fluid [3]; rumen fluid by treatment): 12.33 molar percentage
- n-Val (n-valeric acid) (rumen fluid [3]; rumen fluid by treatment): 2.82^b molar percentage
- Molar yields of propionate (rumen fluid [3]; rumen fluid by treatment, control 24.81): 25.56
- DMI (dry matter intake) (rumen-fistulated cows): 24.7^ab kg/day
- Milk (rumen-fistulated cows): 43.7 kg/day
- Milk/kg DMI (rumen-fistulated cows): 1.77
- Acetic (rumen fluid [4]): 58.62^a molar percentage
- Prop (rumen fluid [4]): 25.51^a molar percentage
- VFA total (rumen fluid [4]): 75.03^c mmol/L
- i-But (rumen fluid [4]): 1.18 molar percentage
- i-Val (rumen fluid [4]): 1.44^b molar percentage
- n-But (rumen fluid [4]): 12.09^bc molar percentage
- n-Val (rumen fluid [4]): 1.16^c molar percentage
- Acetic (rumen fluid [5]; VFA): 60.97^ab molar %
- Prop (rumen fluid [5]; VFA): 20.82^b molar %
- i-But (rumen fluid [5]; VFA): 1.06^c molar %
- i-Val (rumen fluid [5]; VFA): 4.65^a molar %
- n-But (rumen fluid [5]; VFA): 10.79 molar %
- n-Val (rumen fluid [5]; VFA): 1.71 molar %
- Mean Gas ml 0–6 hr (rumen fluid [5]; calculated as increase over Control, 6.6 mg/L monensin, 6 g/L lipid): 5.31^e ml
- DMD % (rumen fluid [5]; dry matter disappearance): 43.48^a %
- VFA, moles (rumen fluid [5]; total VFA production): 52.51^a moles
- Baseline-corrected Ammonia post incubation (rumen fluid [6]): 27.49^a mg/L
- Baseline-corrected percent Ammonia reduction with Top Soy relative to SBM (rumen fluid [6]): 45.26%
- DMD % (rumen fluid [7]; Dry Matter Digestibility): 19.4^ad %
- Acetic (rumen fluid [7]; VFA): 60.5 mmol/100 mmol
- Prop (rumen fluid [7]; VFA): 22.4^ab mmol/100 mmol
- i-But (rumen fluid [7]; VFA): 4.1^bc mmol/100 mmol
- i-Val (rumen fluid [7]; VFA): 1.5^abd mmol/100 mmol
- n-But (rumen fluid [7]; VFA): 10.2 mmol/100 mmol
- n-Val (rumen fluid [7]; VFA): 1.2^abc mmol/100 mmol
- Mean Gas ml 0–6 hr (rumen fluid [7]; calculated as increase over negative Control): −0.9^b ml
- VFA total (rumen fluid [7]; total yields): 41.6^b mmol/L
